For experiment [1], the system named is MDA-MB-453. The experiment can be described thus: drug sensitivity score (DSS), single agent (DSS (weighted AUC score)); higher = more sensitive (stronger viability decrease); extreme values may be limits of the assay. The following applies: BLU9931 0 nM; 72 h. The gist of the method: (§1)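 Cells of the MDA-MB-453 line (2000 per well) were added in medium, with or without 100 nM final FGFR4 inhibitor, to 384-well plates predispensed with FIMM Oncology set compounds at five 10-fold dilutions covering a 10,000-fold range. After 72 h at 37 °C, 5% CO2, CellTiterGlo 2.0 read cellular ATP. Percent viability came from per-plate normalisation to control wells, and the drug sensitivity score was defined as a weighted area under a four-parameter logistic fit.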

Experiment [2] relates to MDA-MB-453. The experiment can be described thus: drug sensitivity score (DSS), in combination with BLU9931 (DSS (weighted AUC score)); higher = more sensitive (stronger viability decrease); extreme values may be limits of the assay. The following applies: BLU9931 100 nM; 72 h. The gist of the method: as §1

Among the data in the supplement of paper PMC7224384 are drug sensitivity score values, retold here.

Molecules are shown by their SMILES.

As to `C[C@@H]1CCN(C(=O)CC#N)C[C@@H]1N(C)c1ncnc2[nH]ccc12` [Tofacitinib], the drug sensitivity score in experiment [1] and in experiment [2] was 0 each time.
Turning to `CC(C)[C@@H](CS(=O)(=O)C(C)C)N1C(=O)[C@@](C)(CC(=O)O)C[C@H](c2cccc(Cl)c2)[C@H]1c1ccc(Cl)cc1` [AMG-232], the drug sensitivity score in experiment [1] amounted to 0.2; in experiment [2], 0.
As for `CCNCCS(=O)(=O)NC[C@@]1(c2ccccc2)SC(NC(=O)C(C)(C)C)=NN1C(=O)C(C)(C)C` [Litronesib], the drug sensitivity score in experiment [1] was 17.3; in experiment [2], 13.
For `CC[C@H](Nc1ncnc2[nH]cnc12)c1nc2cccc(F)c2c(=O)n1-c1ccccc1` [Idelalisib], the drug sensitivity score in experiment [1] was found to be 1.7; in experiment [2] it was 2.
With `COc1cccc2c1C(=O)c1c(O)c3c(c(O)c1C2=O)C[C@@](O)(C(=O)CO)C[C@@H]3O[C@H]1C[C@H](N)[C@H](O)[C@H](C)O1` [Doxorubicin], the drug sensitivity score in experiment [1] is 6.8; in experiment [2], 5.1.
The matching figures for `CNC(=O)c1nn(C)c2c1C(C)(C)Cc1cnc(Nc3ccc(N4CCN(C)CC4)cc3)nc1-2` [Milciclib]: 8.3 and 7.5.
Consider `Cc1ncc(-c2ccnc(Nc3ccc(S(C)(=O)=O)cc3)n2)n1C(C)C` [AZD-5438], for which the results for the drug sensitivity score in experiment [1] and in experiment [2] were 6.1 and 7.9, respectively.
Regarding `CC(C)(O)CC(=O)NCCn1ccc2ncnc(Nc3ccc(Oc4cccc(C(F)(F)F)c4)c(Cl)c3)c21` [TAK-285], the drug sensitivity score in experiment [1] is 5.4; in experiment [2], 6.4.
The matching figures for `Nc1ncnc2c1nc(Cl)n2[C@@H]1O[C@H](CO)[C@@H](O)[C@H]1O` [8-chloro-adenosine]: 8.1 and 9.4.
Taken in the same sequence, the figures for `CN1CCN(C(=O)c2ccc3cc(CCNc4ncnc5ccc(C#N)cc45)ccc3c2)CC1` [Senexin B] were 2.4 and 1.3.
As to `Cc1cc(Nc2ncnc3ccc(NC4=NC(C)(C)CO4)cc23)ccc1Oc1ccn2ncnc2c1` [Tucatinib], the drug sensitivity score in experiment [1] is 0.5; in experiment [2], 0.8.
Regarding `COc1cc(Nc2c(C#N)cnc3cc(OCCCN4CCN(C)CC4)c(OC)cc23)c(Cl)cc1Cl` [Bosutinib], the drug sensitivity score in experiment [1] amounted to 5; in experiment [2], 4.6.
On to `Cc1nc(C(=O)NCC(=O)O)c(O)c2ccc(Oc3ccccc3)cc12` [Roxadustat], for which the drug sensitivity score in experiment [1] and in experiment [2] was 0 throughout.
For `NC1(c2ccc(-c3nc4ccn5c(=O)[nH]nc5c4cc3-c3ccccc3)cc2)CCC1` [MK-2206], the drug sensitivity score is 8.3 in experiment [1] and 8.9 in experiment [2].
The matching figures for `C=CCN(/C=C1/C(=O)O[C@H](COC)[C@@]2(C)C1=C(O)C(=O)C1=C2[C@H](OC(C)=O)C[C@]2(C)C(=O)CC[C@@H]12)CC=C` [Sonolisib]: 0 and 0.
Take `CC(C)C[C@H](NC(=O)CNC(=O)c1cc(Cl)ccc1Cl)B(O)O` [Ixazomib]: the drug sensitivity score stood at 9.4 in experiment [1] and 7.4 in experiment [2].
The matching figures for `Cc1ccc(NS(=O)(=O)c2cccc(C#N)c2)c2[nH]cc(C#N)c12` [E7820]: 3.3 and 1.1.
The matching figures for `Cn1cc(CNCC2CCN(c3ncc(C(=O)NO)cn3)CC2)c2ccccc21` [Quisinostat]: 22.4 and 21.3.
The matching figures for `CCc1cnn2c(NCc3ccc[n+]([O-])c3)cc(N3CCCC[C@H]3CCO)nc12` [Dinaciclib]: 22.1 and 21.5.
On to `Oc1nc(-c2ccc(C(F)(F)F)cc2)nc2c1CSCC2` [XAV-939], for which the drug sensitivity score in experiment [1] is 0.2; in experiment [2] it was 0.1.
Taken in the same sequence, the figures for `CC[C@H](C)C(=O)O[C@H]1C[C@H](O)C=C2C=C[C@H](C)[C@H](CC[C@@H](O)C[C@@H](O)CC(=O)O)[C@H]21` [Pravastatin] were 0 and 0.3.
The matching figures for `N.N.[Cl][Pt][Cl]` [Cisplatin]: 6.5 and 6.5.
The matching figures for `Nc1ccn([C@@H]2O[C@H](CO)[C@@H](O)C2(F)F)c(=O)n1` [Gemcitabine]: 6.9 and 6.
With `CN(C)C(=O)c1ccc(S(=O)(=O)c2ccc(NC(=O)[C@@](C)(O)C(F)(F)F)c(Cl)c2)cc1` [AZD7545], the figures for the drug sensitivity score in experiment [1] and in experiment [2] were 0.1 and 0.2, respectively.
With `C#Cc1cccc(Nc2ncnc3cc4c(cc23)OCCOCCOCCO4)c1` [Icotinib], the drug sensitivity score in experiment [1] is 1.8; in experiment [2], 1.9.
Regarding `O=C(O)c1ccc(CN2CCC(CN[C@@H]3C[C@H]3c3ccccc3)CC2)cc1`, the drug sensitivity score worked out at 0.3 in experiment [1] and 0 in experiment [2].
`CC1(C)CCC(CN2CCN(c3ccc(C(=O)NS(=O)(=O)c4ccc(NCC5CCOCC5)c([N+](=O)[O-])c4)c(Oc4cnc5[nH]ccc5c4)c3)CC2)=C(c2ccc(Cl)cc2)C1` [Venetoclax]: the drug sensitivity score in experiment [1] and in experiment [2] was 0 in each case.
Consider `O=C1Cc2cc(C(=O)NC3C[C@H]4CC[C@@H](C3)N4S(=O)(=O)CC3CCN(CCCC(F)(F)F)CC3)c(Cl)cc2N1` (some centres not stated), for which the drug sensitivity score in experiment [1] and in experiment [2] was 0 throughout.
On to `CC(=O)O[C@@]12CO[C@@H]1C[C@H](O)[C@@]1(C)C(=O)[C@H](O)C3=C(C)[C@@H](OC(=O)[C@H](O)[C@@H](NC(=O)OC(C)(C)C)c4ccccc4)C[C@@](O)([C@@H](OC(=O)c4ccccc4)[C@H]21)C3(C)C` [Docetaxel], for which the drug sensitivity score in experiment [1] is 18.3; in experiment [2] it was 14.1.
For `CCOC(=O)C1=CCCC[C@H]1S(=O)(=O)Nc1ccc(F)cc1Cl` [Resatorvid], the drug sensitivity score in experiment [1] and in experiment [2] was 0 in each case.
For `CCN(CC)CCOc1ccc(C(=C(Cl)c2ccccc2)c2ccccc2)cc1` [Clomifene], the drug sensitivity score in experiment [1] came out at 5.8; in experiment [2] it was 4.
For the molecule `CCN1CCN(c2ccc(Nc3cc(N(C)C(=O)Nc4c(Cl)c(OC)cc(OC)c4Cl)ncn3)cc2)CC1` [Infigratinib], the drug sensitivity score in experiment [1] and in experiment [2] was 0 in each case.
`CO[C@@H]1[C@H](N(C)C(=O)c2ccccc2)C[C@H]2O[C@]1(C)n1c3ccccc3c3c4c(c5c6ccccc6n2c5c31)C(=O)NC4` [Midostaurin]: the drug sensitivity score in experiment [1] was 7.3; in experiment [2] it was 4.8.
With `Nc1nc(Cl)nc2c1ncn2[C@@H]1O[C@H](CO)[C@@H](O)[C@@H]1F` [Clofarabine], the values for the drug sensitivity score in experiment [1] and in experiment [2] were 4.4 and 3.9, respectively.
`CN1CCN(C2CCC(n3cc(-c4ccc(Oc5ccccc5)cc4)c4c(N)ncnc43)CC2)CC1` (configuration not stated): the drug sensitivity score was 8.4 in experiment [1] and 9.3 in experiment [2].
As to `CNC(=O)CN1CCC(Oc2cc3c(Nc4cccc(Cl)c4F)ncnc3cc2OC)CC1` [Sapitinib], the drug sensitivity score in experiment [1] is 2.2; in experiment [2], 4.8.
